# ChEMBL document CHEMBL1201862, “PubChem BioAssay data set” (2004)
# Activity calls are given as the source filed them.
# Legend:
# [1] = viability of uninfected HEp-2 cells – cell-based, HTS, cytotoxicity control for RSV inhibitor project, dose response (AID 2410); type: functional; details: human respiratory syncytial virus
# [2] = molecular target: T1, Rac GTPase-activating protein 1 (Homo sapiens, UniProt Q9H0H5); assay: blockers of MgcRacGAP-driven Rac1 GTP hydrolysis – biochemical, ADP Hunter fluorescence, primary and confirmatory, confirmation (AID 624330); type: functional
# T1 sequence (Q9H0H5 whole entry): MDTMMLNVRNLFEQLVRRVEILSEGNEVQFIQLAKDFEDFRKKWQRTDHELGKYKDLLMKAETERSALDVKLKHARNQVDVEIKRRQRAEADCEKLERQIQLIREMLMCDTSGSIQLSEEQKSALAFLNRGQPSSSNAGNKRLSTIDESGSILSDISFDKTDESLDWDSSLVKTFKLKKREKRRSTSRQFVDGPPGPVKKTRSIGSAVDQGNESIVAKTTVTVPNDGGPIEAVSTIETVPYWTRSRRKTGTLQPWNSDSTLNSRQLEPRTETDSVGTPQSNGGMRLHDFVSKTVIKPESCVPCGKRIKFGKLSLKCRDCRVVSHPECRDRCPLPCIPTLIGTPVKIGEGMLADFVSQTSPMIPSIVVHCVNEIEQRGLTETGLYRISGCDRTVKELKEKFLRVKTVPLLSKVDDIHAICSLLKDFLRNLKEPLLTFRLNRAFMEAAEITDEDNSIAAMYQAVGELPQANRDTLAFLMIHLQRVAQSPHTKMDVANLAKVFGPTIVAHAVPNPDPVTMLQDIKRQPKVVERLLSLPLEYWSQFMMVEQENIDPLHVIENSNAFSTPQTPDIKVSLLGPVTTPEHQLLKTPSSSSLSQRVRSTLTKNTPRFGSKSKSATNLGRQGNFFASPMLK
# [3] = system: Streptococcus; assay: GAS UMAA2166 growth inhibition – luminescence, BacTiterGlo, counter-screen for streptokinase expression inhibitor project, dose response (AID 1915); type: functional, organism-based;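 note: potency for reduction of bacterial viability or growth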
# [4] = system: INS1; assay: INS-1E survival protection against cytokine death – cell-based, luminescence, retest, dose response (AID 449756); type: functional; details: Rattus norvegicus;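 note: cell death triggered by IL-1 beta plus TNF-alpha plus IFN-gamma mixture; protective hits raise ATP signal compared with cytokine alone wells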
# [5] = system: Streptococcus sp. 'group A'; assay: Streptococcus pyogenes SK(-)GAS viability under kanamycin – luminescence, BacTiterGlo, confirmation, counter-screen for streptokinase expression inhibitor project, dose response (AID 1900); type: functional, organism-based
# [6] = Luminescence Cell-Based Dose Confirmation HTS to Identify Activators of 5'UTR Stem-Loop Driven Alpha-Synuclein mRNA Translation in H4 Neuroglioblastoma Cells. [Related pubchem assays: 1829 (Project Summary), 1814 (Primary HTS)]; type: functional
# [7] = Luminescence Cell-Based Dose Response HTS to Identify Activators of Luciferase Translation or Activity in H4 […] Cells. [Related pubchem assays: 1829 (Project Summary), 1814 (Primary HTS)]; type: functional
# [8] = system: H4; assay: Luminescence Cell-Based Dose Response HTS to Identify Activators of 5'UTR Stem-Loop Driven Prion Protein mRNA Translation in H4 Neuroglioblastoma Cells. [Related pubchem assays: 1829 (Project Summary), 1814 (Primary HTS)]; type: functional; details: Homo sapiens
# [9] = molecular target: Cytochrome P450 2D6 (Homo sapiens, UniProt P10635);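 note: CYP2D6 member of a cytochrome P450 panel assay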
# Sequence of Cytochrome P450 2D6 (P10635 whole entry): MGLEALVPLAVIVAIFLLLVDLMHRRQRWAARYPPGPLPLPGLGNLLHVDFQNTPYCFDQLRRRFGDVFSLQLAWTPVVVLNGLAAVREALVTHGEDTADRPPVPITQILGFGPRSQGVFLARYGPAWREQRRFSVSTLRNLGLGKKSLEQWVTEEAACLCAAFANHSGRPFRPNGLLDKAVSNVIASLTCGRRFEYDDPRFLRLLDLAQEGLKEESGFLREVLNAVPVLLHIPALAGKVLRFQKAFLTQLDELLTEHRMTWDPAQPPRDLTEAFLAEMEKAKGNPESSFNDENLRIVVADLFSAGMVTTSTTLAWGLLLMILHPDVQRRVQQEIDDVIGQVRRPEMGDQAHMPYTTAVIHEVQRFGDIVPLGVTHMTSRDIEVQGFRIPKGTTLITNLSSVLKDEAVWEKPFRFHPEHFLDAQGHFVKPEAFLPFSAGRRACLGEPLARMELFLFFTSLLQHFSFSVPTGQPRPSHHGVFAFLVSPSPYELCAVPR
# [10] = molecular target: Cytochrome P450 2C9 (Homo sapiens, UniProt P11712)
# Sequence of Cytochrome P450 2C9 (P11712 whole entry): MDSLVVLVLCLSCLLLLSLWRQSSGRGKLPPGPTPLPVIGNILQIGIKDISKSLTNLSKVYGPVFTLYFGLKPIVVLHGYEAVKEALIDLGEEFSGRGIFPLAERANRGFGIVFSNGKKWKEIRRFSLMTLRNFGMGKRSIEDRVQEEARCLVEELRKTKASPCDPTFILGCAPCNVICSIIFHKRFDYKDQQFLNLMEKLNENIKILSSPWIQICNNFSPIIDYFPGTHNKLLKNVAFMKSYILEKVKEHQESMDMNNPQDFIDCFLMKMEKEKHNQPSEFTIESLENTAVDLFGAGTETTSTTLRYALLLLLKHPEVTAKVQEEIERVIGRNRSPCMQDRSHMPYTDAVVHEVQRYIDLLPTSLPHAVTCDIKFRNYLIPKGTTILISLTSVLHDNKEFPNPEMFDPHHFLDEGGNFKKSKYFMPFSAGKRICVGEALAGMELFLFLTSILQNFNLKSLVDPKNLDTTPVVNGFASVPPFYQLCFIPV
# [11] = molecular target: T2, Protein RecA (Mycobacterium tuberculosis, UniProt P9WHJ3); assay: Fluorescence Cell-Free Homogeneous Dose Retest to Identify Inhibitors of RecA-Intein Splicing Activity. [Related pubchem assays (depositor defined):AID2097, AID2223, AID489010, AID492950]; type: functional
# T2 sequence (P9WHJ3 whole entry): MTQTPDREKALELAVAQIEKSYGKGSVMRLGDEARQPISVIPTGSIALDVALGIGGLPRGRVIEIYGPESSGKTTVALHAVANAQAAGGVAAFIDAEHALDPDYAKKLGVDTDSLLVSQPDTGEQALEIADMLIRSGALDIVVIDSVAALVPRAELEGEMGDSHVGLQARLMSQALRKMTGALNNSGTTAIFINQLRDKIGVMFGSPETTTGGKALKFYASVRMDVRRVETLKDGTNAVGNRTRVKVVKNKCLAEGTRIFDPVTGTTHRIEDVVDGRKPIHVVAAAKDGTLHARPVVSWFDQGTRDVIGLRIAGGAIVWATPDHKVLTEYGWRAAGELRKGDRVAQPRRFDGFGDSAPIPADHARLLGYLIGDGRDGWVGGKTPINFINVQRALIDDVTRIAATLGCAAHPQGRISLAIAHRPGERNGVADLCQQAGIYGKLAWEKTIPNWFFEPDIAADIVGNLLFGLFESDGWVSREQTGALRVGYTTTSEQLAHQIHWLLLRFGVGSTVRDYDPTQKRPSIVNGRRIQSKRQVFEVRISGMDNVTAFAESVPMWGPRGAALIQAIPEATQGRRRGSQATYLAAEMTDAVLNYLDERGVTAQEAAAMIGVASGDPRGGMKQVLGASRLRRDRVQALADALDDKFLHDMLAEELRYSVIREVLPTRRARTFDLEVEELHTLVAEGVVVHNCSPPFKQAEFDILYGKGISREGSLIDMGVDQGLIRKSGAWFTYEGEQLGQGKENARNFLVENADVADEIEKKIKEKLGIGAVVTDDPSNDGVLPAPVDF
# [12] = molecular target: T3, Replicative DNA helicase DnaB (Mycobacterium tuberculosis, UniProt P9WMR3); assay: DnaB intein splicing inhibitors, dose response, biochemical, cell-free fluorescence (AID 449749); type: functional
# T3 sequence (P9WMR3 whole entry): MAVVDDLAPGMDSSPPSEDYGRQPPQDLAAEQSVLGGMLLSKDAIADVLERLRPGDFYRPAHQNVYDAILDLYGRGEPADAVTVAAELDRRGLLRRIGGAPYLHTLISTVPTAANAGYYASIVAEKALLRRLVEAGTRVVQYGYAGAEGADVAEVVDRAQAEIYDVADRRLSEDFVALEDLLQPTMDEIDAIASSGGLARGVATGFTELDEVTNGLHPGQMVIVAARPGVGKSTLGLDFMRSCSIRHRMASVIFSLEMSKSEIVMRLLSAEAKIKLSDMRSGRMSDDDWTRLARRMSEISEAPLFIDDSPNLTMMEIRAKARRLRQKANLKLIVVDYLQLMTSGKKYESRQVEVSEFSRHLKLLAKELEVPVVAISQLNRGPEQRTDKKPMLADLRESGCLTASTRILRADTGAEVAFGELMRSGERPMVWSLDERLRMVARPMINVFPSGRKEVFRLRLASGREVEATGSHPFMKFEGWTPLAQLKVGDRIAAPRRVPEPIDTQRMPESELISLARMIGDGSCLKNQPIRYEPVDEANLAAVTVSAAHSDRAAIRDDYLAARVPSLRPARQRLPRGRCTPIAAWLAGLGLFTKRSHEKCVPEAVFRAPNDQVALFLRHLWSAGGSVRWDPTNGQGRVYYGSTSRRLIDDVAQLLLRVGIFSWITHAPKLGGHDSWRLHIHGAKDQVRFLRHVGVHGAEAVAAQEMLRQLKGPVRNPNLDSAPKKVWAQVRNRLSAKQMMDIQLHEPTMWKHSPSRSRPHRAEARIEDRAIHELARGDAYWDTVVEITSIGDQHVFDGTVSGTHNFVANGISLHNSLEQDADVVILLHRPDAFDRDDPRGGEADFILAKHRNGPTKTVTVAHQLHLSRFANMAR
# [13] = molecular target: T4, Corticotropin-releasing factor receptor 2/Corticotropin-releasing factor-binding protein (Homo sapiens, UniProt P24387+Q13324); assay: activators of CRF receptor 2 with binding protein – uHTS hits, confirmation (AID 602473); type: functional; details: read-out: EC50_Mean
# T4 sequence (Q13324 whole entry): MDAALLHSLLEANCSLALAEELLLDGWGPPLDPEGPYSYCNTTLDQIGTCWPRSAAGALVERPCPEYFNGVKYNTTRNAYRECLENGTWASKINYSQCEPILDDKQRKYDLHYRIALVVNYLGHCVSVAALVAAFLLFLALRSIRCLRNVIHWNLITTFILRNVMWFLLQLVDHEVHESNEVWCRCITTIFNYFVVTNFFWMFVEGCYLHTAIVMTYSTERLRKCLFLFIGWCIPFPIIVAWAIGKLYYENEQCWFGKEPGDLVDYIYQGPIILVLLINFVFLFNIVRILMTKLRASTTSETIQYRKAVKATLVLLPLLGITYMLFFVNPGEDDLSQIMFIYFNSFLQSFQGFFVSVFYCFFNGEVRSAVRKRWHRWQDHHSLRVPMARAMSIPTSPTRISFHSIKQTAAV
# T4 sequence (P24387 whole entry): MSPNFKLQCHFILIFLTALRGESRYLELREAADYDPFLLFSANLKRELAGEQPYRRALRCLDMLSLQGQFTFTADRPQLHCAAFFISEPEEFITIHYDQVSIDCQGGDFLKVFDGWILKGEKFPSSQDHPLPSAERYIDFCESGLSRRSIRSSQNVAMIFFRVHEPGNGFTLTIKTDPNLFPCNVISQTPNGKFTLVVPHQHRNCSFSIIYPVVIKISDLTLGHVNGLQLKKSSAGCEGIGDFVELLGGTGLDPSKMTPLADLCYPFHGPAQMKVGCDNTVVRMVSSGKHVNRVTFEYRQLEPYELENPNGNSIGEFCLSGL
# [14] = molecular target: T4, Corticotropin-releasing factor receptor 2/Corticotropin-releasing factor-binding protein; assay: Dose Response confirmation of uHTS hits for small molecule antagonists of the CRF-binding protein and CRF-R2 receptor complex.; type: functional; details: read-out: IC50_Mean
# [15] = Trypanosoma cruzi growth suppression in host cells – NIH3T3 host cells, beta-gal luminescence, confirmation (AID 2044); type: functional, cell-based;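 note: intracellular parasites grown in NIH/3T3 mouse fibroblasts as host cells; luminescent beta-galactosidase reporter signal from transgenic T. cruzi replicating inside host cells; inhibitors lower the luminescence signal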
# [16] = NIH3T3 cell viability loss – ATP luminescence, mouse fibroblasts, counter-screen, dose response (AID 2010); type: functional, cell-based;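 note: cells exposed to compound for about 90 hours before reading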
compound,measurement,setting,value
CCOC(=O)C1=C(O)c2ccccc2C(=O)/C1=C\c1ccc(C)cc1,CC50,[1],31.5 µM (active)
O=c1c2ccccc2nc(/C=C/c2ccc(O)c(O)c2)n1-c1ccccc1,IC50,[2],73.9 µM (active)
COC(=O)C1=C(C)N(CC2CCCO2)C(=O)/C1=C\c1ccc(O)cc1 (stereo unspecified),IC50,[2],25 µM (active)
CC1CC(C)(C)N(C(=O)CN2CCN(C)CC2)c2ccccc21 (stereo unspecified),IC50,[2],85.3 µM (active)
Cc1ccc(O)c(NC(=S)NC(=O)c2ccc(-c3ccc(Cl)cc3)o2)c1,EC50,[3],5.74 µM (active)
same,AC50,[4],16.7 µM (active)
same,EC50,[5],1.16 µM (active)
COc1cccc(NC(=O)C(=O)NCC2CCCN2S(=O)(=O)c2ccccc2)c1 (stereo unspecified),EC50,[6],4.26 µM (active)
same,EC50,[7],2.67 µM (active)
same,EC50,[8],58.8 µM (active)
Cc1ccc2nc(Nc3ccc(Cl)cc3)c3nncn3c2c1,CC50,[1],34.4 µM (active)
O=C(c1cc(S(=O)(=O)N2CCOCC2)ccc1F)N(CCc1ccccc1)Cc1ccccc1,CC50,[1],29.8 µM (active)
COc1cc(-c2nc3ccc(C)cn3c2NCc2ccccc2)ccc1SC1CCCCC1,AC50,[4],4.87 µM (active)
CN1c2ccccc2C(C)(C)[C@]12C=Cc1cc(O)ccc1O2,CC50,[1],7.32 µM (active)
Oc1ccccc1-[n+]1c(-c2ccccc2)cc(-c2ccccc2)cc1-c1ccccc1.[O-][Cl+3]([O-])([O-])[O-],CC50,[1],11.7 µM (active)
OCCCn1c(C(CO)Nc2nc(-c3ccc(Cl)cc3)cs2)nc2ccccc21 (stereo unspecified),CC50,[1],15.5 µM (active)
O=C(Cc1cccs1)Nc1cccc(-c2nnc(-c3ccco3)o2)c1,CC50,[1],> 12.5 µM (active)
Nc1ccc(N2CCN(c3ccc(Cl)c(Cl)c3)CC2)cc1,IC50,[2],18.1 µM (active)
COc1ccc(C2CC(c3ccccc3)=NN2c2ccc(S(N)(=O)=O)cc2)cc1OC (stereo unspecified),CC50,[1],24.2 µM (active)
O=C(Cc1ccc([N+](=O)[O-])cc1)Nc1cccnc1,AC50,[4],21.1 µM (active)
O=C(CSc1nnc(-c2ccccn2)n1Cc1ccco1)c1ccc(-c2ccccc2)cc1,CC50,[1],34.3 µM (active)
CC(=O)NCCn1c(SCC(=O)NCc2ccco2)nc2ccccc2c1=O,AC50,[9],0.0447 µM (inconclusive)
same,AC50,[10],25.1 µM (inconclusive)
same,EC50,[11],9.17 µM (active)
same,AC50,[12],7.22 µM (active)
COc1cc(/C=C(\C#N)C(=O)Nc2ccc3c(c2)OCCO3)ccc1O,EC50,[11],13.9 µM (active)
same,AC50,[12],75.9 µM (active)
same,IC50,[2],34 µM (active)
same,EC50,[13],> 53 µM (inactive)
same,IC50,[14],> 47.1 µM (inactive)
CC(C(=O)Nc1ccc2c(c1)OCO2)N1CCN(C)CC1 (stereo unspecified),IC50,[2],65.3 µM (active)
CCC1=NN2C(=N)/C(=C/c3ccc(OS(=O)(=O)c4ccccc4)cc3)C(=O)N=C2S1,CC50,[1],> 50 µM (active)
Cc1ccc(S(=O)(=O)N2CCN(C(=O)CN3CCN(c4ccc(O)cc4)CC3)CC2)cc1,IC50,[2],32.4 µM (active)
COc1cc(/C=C/C(=O)OCC(=O)N(CC(C)C)c2c(N)n(Cc3ccccc3)c(=O)[nH]c2=O)ccc1O,IC50,[2],65.7 µM (active)
same,EC50,[13],2.73 µM (active)
O=C1CCC(C2CCc3cc(O)ccc3C2)C1 (stereo unspecified),IC50,[2],70.4 µM (active)
COc1cc(/C=N/NC(=O)c2nc(-c3ccccc3)n(-c3ccccc3)n2)ccc1O,IC50,[2],38.7 µM (active)
C/C(=N\N1C(=O)c2ccccc2NC1c1ccccc1)c1ccccc1O (stereo unspecified),EC50,[15],2.13 µM (active)
same,AC50,[4],2.24 µM (active)
same,EC50,[16],7.4 µM (active)
O=C(/N=C1\SCC(=O)N1c1ccccc1Cl)c1ccco1,EC50,[6],4.12 µM (active)
same,EC50,[7],8.06 µM (active)
N#CCC(=O)N/N=C/c1cc(-c2ccccc2)n(-c2ccc(Cl)cc2)c1-c1ccccc1,EC50,[15],1.51 µM (active)
same,AC50,[4],3.21 µM (active)
same,EC50,[16],> 60 µM (inconclusive)
CCOc1cc(/C=N/NC(=O)C(=O)NCc2cccnc2)ccc1O,IC50,[2],54.5 µM (active)
